These results are taken from patent US20020160091A1, “Acesulfame salt, process for its preparation and its use” (priority 2001, published 2002).

Each structure is given as a SMILES string.

The conditions of series [1]: known property named for comparison; cited from earlier work.
For series [2] the following is noted: known property named for comparison; cited from earlier work. The source holds these as a separate data set.
The mark [3] stands for this setting: compared with acesulfame potassium salt.

Take `Cl.N` [ammonium chloride salt, ammonium chloride]: in series [1], the “salty-bitter taste (comparison salt)” value is on record as “salty-bitter”.

Take `CC(=O)O.N` [ammonium acetate salt, ammonium acetate]: the “hygroscopicity (comparison salt)” value in series [2] is given as “hygroscopic”.

As to `CC1=CC(=O)NS(=O)(=O)O1.N` [acesulfame ammonium salt], where the note is “acesulfame ammonium versus acesulfame potassium”, the “difference found by the testers in extensive taste tests” value was “no difference was found”. Also, under setting [3], the sweet taste entry is “exactly the same pleasant sweet taste as the acesulfame potassium salt”, the sweetening power result is “the same sweetening power as the acesulfame potassium salt” and the sweetness profile entry is recorded as “exactly the same sweetness profile”.
